Reference: PMC10870243 (Clinical and Translational Science, 2024)
Like-named read-outs stand apart in the source and are kept apart here. Each block holds one molecule with its values, some of them ahead of it.

Legend:
[1] = format: in vivo, human; conditions: for T max / Tmax: median (range); for PTR (peak-to-trough ratio): geometric mean; for CL/F: geometric mean (%CV); for Tmax: T max
[2] = Phase I DDI study: safety and tolerability; format: in vivo, human; conditions: for overall safety and tolerability: healthy participants, clesacostat 15 mg b.i.d., ervogastat 300 mg b.i.d.
CYP3A [3] = test: In vitro CYP3A induction in human hepatocytes; format: in vitro ADME
P‐glycoprotein (Pgp) = P‐glycoprotein (Pgp) (Homo sapiens, UniProt P08183); test: In vitro efflux transporter study, P-glycoprotein; format: in vitro ADME
[4] = biological target: T1, breast cancer resistance protein (BCRP) (Homo sapiens, UniProt Q9UNQ0); test: In vitro efflux transporter study, BCRP; format: in vitro ADME
T1 sequence (Q9UNQ0 1-655): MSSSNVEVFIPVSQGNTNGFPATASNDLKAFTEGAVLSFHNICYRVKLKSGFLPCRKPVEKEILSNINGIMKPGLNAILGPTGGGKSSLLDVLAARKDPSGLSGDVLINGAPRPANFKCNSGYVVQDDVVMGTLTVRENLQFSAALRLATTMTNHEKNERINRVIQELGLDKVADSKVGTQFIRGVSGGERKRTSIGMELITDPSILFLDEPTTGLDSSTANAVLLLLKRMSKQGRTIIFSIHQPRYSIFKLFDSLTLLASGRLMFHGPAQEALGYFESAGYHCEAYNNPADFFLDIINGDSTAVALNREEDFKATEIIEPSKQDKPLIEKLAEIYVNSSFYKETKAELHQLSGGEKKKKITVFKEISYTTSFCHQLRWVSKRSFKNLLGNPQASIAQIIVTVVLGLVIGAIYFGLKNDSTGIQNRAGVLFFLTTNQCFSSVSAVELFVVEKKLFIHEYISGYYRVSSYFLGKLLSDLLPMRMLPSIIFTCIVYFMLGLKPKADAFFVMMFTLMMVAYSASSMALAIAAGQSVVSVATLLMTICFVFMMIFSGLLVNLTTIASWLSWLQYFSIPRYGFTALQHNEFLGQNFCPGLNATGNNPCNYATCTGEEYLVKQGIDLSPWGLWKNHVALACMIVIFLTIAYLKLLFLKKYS

CYP3A [5] = conditions: healthy adults, total daily dose ≤720 mg; cited from earlier work
[6] = format: in vivo, human
CYP3A [7] = test: In vitro CYP3A time-dependent inhibition; format: in vitro ADME; conditions: 0–300 μM
[8] = ervogastat 300 mg + clesacostat 15 mg b.i.d., Day 14
[9] = ervogastat 300 mg b.i.d. alone, Day 7
[10] = clesacostat 15 mg b.i.d. co-administered with ervogastat 300 mg b.i.d.
[11] = same participant, Day 9 (7 days clesacostat alone then 2 days with ervogastat)

P‐glycoprotein (Pgp), sequence (P08183 whole entry): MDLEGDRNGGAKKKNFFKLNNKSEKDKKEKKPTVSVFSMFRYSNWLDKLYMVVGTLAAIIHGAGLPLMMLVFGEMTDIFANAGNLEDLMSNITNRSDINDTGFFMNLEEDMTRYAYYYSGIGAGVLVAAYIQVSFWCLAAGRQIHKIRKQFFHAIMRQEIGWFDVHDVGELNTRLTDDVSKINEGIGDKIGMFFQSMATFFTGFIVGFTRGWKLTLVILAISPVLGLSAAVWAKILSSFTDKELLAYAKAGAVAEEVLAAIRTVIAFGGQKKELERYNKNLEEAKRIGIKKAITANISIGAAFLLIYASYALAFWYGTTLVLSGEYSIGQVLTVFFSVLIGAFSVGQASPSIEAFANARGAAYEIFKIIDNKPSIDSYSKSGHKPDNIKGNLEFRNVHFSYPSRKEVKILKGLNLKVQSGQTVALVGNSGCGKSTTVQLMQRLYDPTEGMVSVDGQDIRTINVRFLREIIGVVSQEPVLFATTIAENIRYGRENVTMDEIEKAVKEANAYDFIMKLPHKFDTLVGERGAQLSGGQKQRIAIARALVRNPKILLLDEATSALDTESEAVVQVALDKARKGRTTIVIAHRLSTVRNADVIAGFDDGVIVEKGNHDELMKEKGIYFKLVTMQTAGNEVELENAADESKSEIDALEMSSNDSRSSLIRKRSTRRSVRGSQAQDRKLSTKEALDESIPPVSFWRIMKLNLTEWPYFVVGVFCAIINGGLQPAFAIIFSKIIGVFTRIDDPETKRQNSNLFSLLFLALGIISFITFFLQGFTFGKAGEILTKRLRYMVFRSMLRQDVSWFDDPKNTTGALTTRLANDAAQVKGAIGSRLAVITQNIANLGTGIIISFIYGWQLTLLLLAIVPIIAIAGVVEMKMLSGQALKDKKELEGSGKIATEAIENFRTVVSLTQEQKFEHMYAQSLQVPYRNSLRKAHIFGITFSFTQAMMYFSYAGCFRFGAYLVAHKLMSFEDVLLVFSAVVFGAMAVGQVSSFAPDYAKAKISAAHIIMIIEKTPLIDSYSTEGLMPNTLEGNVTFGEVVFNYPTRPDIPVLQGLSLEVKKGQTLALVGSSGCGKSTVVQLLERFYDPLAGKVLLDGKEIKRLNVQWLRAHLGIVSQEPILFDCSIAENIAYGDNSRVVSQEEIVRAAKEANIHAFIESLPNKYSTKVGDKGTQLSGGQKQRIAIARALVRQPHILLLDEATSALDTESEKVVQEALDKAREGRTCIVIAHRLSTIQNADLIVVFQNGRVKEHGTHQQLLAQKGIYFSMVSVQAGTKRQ

- T max ([1]; ervogastat 300 mg + clesacostat 15 mg b.i.d., Day 14, n=9): 2.00 (1.00–2.00) h
- PTR (peak-to-trough ratio) [1, 8]: 150
- CL/F [1, 8]: 31.76 (34) L/h
- T max ([1]; ervogastat 300 mg b.i.d. alone, Day 7, n=9): 2.00 (1.00–4.00) h
- PTR (peak-to-trough ratio) [1, 9]: 94.3
- CL/F [1, 9]: 34.41 (19) L/h
- AUC ([1]; human, plasma, oral, 300 mg): 8720 ng·h/mL
- Cmax ([1]; human, plasma, oral, 300 mg): 2390 ng/mL
- Tmax ([1]; human, plasma, oral, 300 mg, ervogastat 300 mg b.i.d. alone, Day 7, n=9): ~2 h
- Tmax ([1]; human, plasma, oral, ervogastat 300 mg + clesacostat 15 mg b.i.d., Day 14, n=9): ~2 h
- EC50 (CYP3A [3]): 21.4 to 37.2 µM
- inhibition of Pgp (P‐glycoprotein (Pgp)): may inhibit
- substrate for Pgp (P‐glycoprotein (Pgp)): substrates
- inhibition of BCRP [4]: may inhibit
- substrate for BCRP [4]: substrates
SMILES: CCOc1cccnc1Oc1cncc(-c2ncc(C(=O)N[C@H]3CCOC3)cn2)c1 [ervogastat]
- overall safety and tolerability [2]: generally safe and well tolerated
- change in 4β-hydroxycholesterol (CYP3A [5]): no changes

SMILES: COc1cc(C(=O)N2CCC3(CC2)CC(=O)c2c(cnn2C(C)C)C3)cc(-c2ccc(C(=O)O)cc2)n1 [clesacostat]
- decrease in mean systemic exposure based on AUCtau [6, 10]: 19%
- decrease in mean systemic exposure based on C max [6, 10]: 12%
- AUC ([6]; human, plasma, oral, 15 mg): 12100 ng·h/mL
- Cmax ([6]; human, plasma, oral, 15 mg): 1340 ng/mL
- Tmax ([6]; human, plasma, oral, 15 mg): 4 h
- overall safety and tolerability [2]: generally safe and well tolerated
- ALT elevation [2, 11]: 3.8 × ULN
- AST elevation [2, 11]: 2.9 × ULN
- GGT elevation [2, 11]: 3.3 × ULN
- composite slope based on observed inactivation rate constant (k obs) (CYP3A [7]; midazolam as probe): 0.452 M⁻¹ s⁻¹
- composite slope based on observed inactivation rate constant (k obs) (CYP3A [7]; testosterone as probe): 0.398 M⁻¹ s⁻¹
- substrate for Pgp (P‐glycoprotein (Pgp)): substrates
- substrate for BCRP [4]: substrates
